Assay results published in the NIST ThermoML archive (doi:10.1016/j.jct.2011.07.003).
Several values for one entry are separate records, joined by “and”; a condition that tells them apart may be missing. Equal values may be shown once. Numbers after ± are expanded uncertainties.

Details: Calculated from knudsen effusion weight loss

vapor or sublimation pressure (318.47 K, Crystal 2) | vapor or sublimation pressure (328.2 K, Crystal 2) | vapor or sublimation pressure (337.2 K, Crystal) | SMILES | vapor or sublimation pressure (295.73 K, Crystal 2) | vapor or sublimation pressure (302.13 K, Crystal 2) | vapor or sublimation pressure (307.66 K, Crystal 2) | vapor or sublimation pressure (313.1 K, Crystal 2) | vapor or sublimation pressure (323 K, Crystal 2) | vapor or sublimation pressure (332.95 K, Crystal 2) | vapor or sublimation pressure (321.79 K, Crystal) | vapor or sublimation pressure (328.88 K, Crystal) | vapor or sublimation pressure (345.77 K, Crystal) | vapor or sublimation pressure (352.86 K, Crystal) | vapor or sublimation pressure (360.64 K, Crystal)
0.000208 ± 1e-05 kPa [middle of 6 runs] | 0.00059 ± 3e-05 kPa [middle of 6 runs] |  | c1ccc2c(c1)ccc1ccccc12 [phenanthrene] | 1.4e-05 ± 1e-06 kPa and 1.5e-05 ± 1e-06 kPa | 3.2e-05 ± 2e-06 kPa and 3.1e-05 ± 2e-06 kPa | 6.1e-05 ± 3e-06 kPa and 6.4e-05 ± 3e-06 kPa and 6.2e-05 ± 3e-06 kPa | 0.000118 ± 6e-06 kPa and 0.000119 ± 6e-06 kPa | 0.000341 ± 1.7e-05 kPa [middle of 5 runs] | 0.000959 ± 4.8e-05 kPa [middle of 6 runs] |  |  |  |  | 
 |  | 9.3e-05 ± 5e-06 kPa [middle of 7 runs] | c1ccc2cc3ccccc3cc2c1 [anthracene] |  |  |  |  |  |  | 1.7e-05 ± 1e-06 kPa and 1.8e-05 ± 1e-06 kPa and 1.9e-05 ± 1e-06 kPa | 3.9e-05 ± 2e-06 kPa and 3.7e-05 ± 2e-06 kPa and 4e-05 ± 2e-06 kPa | 0.000236 ± 1.2e-05 kPa [middle of 6 runs] | 0.000473 ± 2.4e-05 kPa [middle of 6 runs] | 0.000988 ± 4.9e-05 kPa [middle of 5 runs]
